We go through 17 compounds from patent publication US20210253557A1, “SUBSTITUTED TRIAZOLE DERIVATIVES AND USES THEREOF” (Bayer Pharma Aktiengesellschaft, priority 2017, published 2021).

One assay has as its target T1, human V2 receptor (Homo sapiens, UniProt P30518).
T1 construct: expressed in transfected cells; host or cells: CHO K1 (ATCC) expressing firefly luciferase under a CRE-responsive promoter
The assay can be described thus: Cellular in vitro assay for determining vasopressin receptor activity (V2, CRE-luciferase). The assay is classed as cell-based. The following applies: CHO cell line transfected with the human V2 receptor; [Arg8]-vasopressin at EC50 concentration; read-out: IC50 hV2. As to the method:
(§1) B-1. Cellular In Vitro Assay for Determining Vasopressin Receptor Activity
(§2) The identification of agonists and antagonists of the V1a and V2 vasopressin receptors from humans, rats and dogs as well as the quantification of the activity of the compounds of the invention is carried out using recombinant cell lines. These cell lines originally derive from a hamster's ovary epithelial cell (Chinese Hamster Ovary, CHO K1, ATCC: American Type Culture Collection, Manassas, Va. 20108, USA). The test cell lines constitutively express the human, rat or dog V1a or V2 receptors. In case of the Gαq-coupled V1a receptors, cells are also stably transfected with a modified form of the calcium-sensitive photoproteins aequorin (human and rat V1a) or obelin (dog V1a), which, after reconstitution with the cofactor coelenterazine, emit light when there are increases in free calcium concentrations [Rizzuto R, Simpson A W, Brini M, Pozzan T, Nature 358, 325-327 (1992); Illarionov B A, Bondar V S, Illarionova V A, Vysotski E S, Gene 153 (2), 273-274 (1995)]. The resulting vasopressin receptor cells react to stimulation of the recombinantly expressed V1a receptors by intracellular release of calcium ions, which can be quantified by the resulting photoprotein luminescence. The Gs-coupled V2 receptors are stably transfected into cell lines expressing the gene for firefly luciferase under control of a CRE-responsible promoter. Activation of V2 receptors induces the activation of the CRE-responsive promoter via cAMP increase, thereby inducing the expression of firefly luciferase. The light emitted by photoproteins of V1a cell lines as well as the light emitted by firefly luciferase of V2 cell lines corresponds to the activation or inhibition of the respective vasopressin receptor. The bioluminescence of the cell lines is detected using a suitable luminometer [Milligan G, Marshall F, Rees S, Trends in Pharmacological Sciences 17, 235-237 (1996)].
Vasopressin V2 receptor cell lines:
On the day before the assay, the cells are plated out in culture medium (DMEM/F12, 2% FCS, 2 mM glutamine, 10 mM HEPES) in 384-well microtiter plates and kept in a cell incubator (96% humidity, 5% v/v CO2, 37° C.). On the day of the assay, test compounds in various concentrations and the agonist [Arg^8]-vasopressin at EC50 concentration are added together to the wells, and plates are incubated for 3 hours in a cell incubator. Upon addition of the cell lysis reagent Triton™ and the substrate luciferin, luminescence of firefly luciferase is measured in a luminometer.
(§3) Table 1A below lists individual IC50 values for the compounds of the invention (including racemic mixtures as well as separated enantiomers) that were obtained from cell lines transfected with the human V1a or V2 receptor: […]

The target in the next assay is T2, human V1a receptor (Homo sapiens, UniProt P37288).
T2 construct: expressed in transfected cells; host or cells: CHO K1 (ATCC), also stably transfected with a modified aequorin
Briefly: Cellular in vitro assay for determining vasopressin receptor activity (V1a, aequorin luminescence). The following applies: for IC50: CHO cell line transfected with the human V1a receptor, [Arg8]-vasopressin at EC50 concentration, read-out: IC50 hV1a; for ratio IC50 hV2/hV1a: selectivity ratio of IC50 hV2 to IC50 hV1a. The assay is classed as cell-based. As to the method: as §1, §2
Vasopressin V1a receptor cell lines:
On the day before the assay, the cells are plated out in culture medium (DMEM/F12, 2% FCS, 2 mM glutamine, 10 mM HEPES, 5 μg/ml coelenterazine) in 384-well microtiter plates and kept in a cell incubator (96% humidity, 5% v/v CO2, 37° C.). On the day of the assay, test compounds in various concentrations are placed for 10 minutes in the wells of the microtiter plate before the agonist [Arg^8]-vasopressin at EC50 concentration is added. The resulting light signal is measured immediately in a luminometer.
as §3

T1 sequence (P30518 whole entry): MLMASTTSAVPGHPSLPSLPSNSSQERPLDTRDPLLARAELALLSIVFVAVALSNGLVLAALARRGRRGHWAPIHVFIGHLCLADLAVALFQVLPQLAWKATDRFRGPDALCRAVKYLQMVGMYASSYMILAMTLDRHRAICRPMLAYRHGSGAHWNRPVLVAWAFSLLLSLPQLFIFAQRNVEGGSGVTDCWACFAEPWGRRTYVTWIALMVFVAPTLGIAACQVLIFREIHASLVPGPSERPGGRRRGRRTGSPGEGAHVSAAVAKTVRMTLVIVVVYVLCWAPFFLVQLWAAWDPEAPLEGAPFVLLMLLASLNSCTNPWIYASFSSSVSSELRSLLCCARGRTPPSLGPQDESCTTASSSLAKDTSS
T2 sequence (P37288 whole entry): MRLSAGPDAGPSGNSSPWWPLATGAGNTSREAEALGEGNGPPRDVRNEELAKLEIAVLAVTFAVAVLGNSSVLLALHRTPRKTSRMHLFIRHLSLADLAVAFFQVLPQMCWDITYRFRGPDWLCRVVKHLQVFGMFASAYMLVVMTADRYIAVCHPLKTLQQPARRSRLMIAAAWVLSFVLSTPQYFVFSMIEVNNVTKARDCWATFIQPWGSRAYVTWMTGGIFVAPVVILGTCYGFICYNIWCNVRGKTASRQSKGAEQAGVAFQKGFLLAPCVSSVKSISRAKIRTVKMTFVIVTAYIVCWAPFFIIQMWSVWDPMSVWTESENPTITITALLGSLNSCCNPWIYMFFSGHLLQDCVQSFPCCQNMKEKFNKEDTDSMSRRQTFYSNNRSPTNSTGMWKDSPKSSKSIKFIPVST

As to `C[C@H](OC(N)=O)c1nc(Cn2nc(-c3ccc(Cl)cc3)n(C[C@H](O)C(F)(F)F)c2=O)nn1-c1cnccc1Cl` [Example 21, (1S)-1-[3-({3-(4-Chlorophenyl)-5-oxo-4-[(2S)-3,3,3-trifluoro-2-hydroxypropyl]-4,5-dihydro-1H-1,2,4-triazol-1-yl}methyl)-1-(4-chloropyridin-3-yl)-1H-1,2,4-triazol-5-yl]ethyl Carbamate], the IC50 was 17.5 nM on human V2 receptor and 1.9 nM at human V1a receptor. For the same compound, the “ratio IC50 hV2/hV1a” value on human V1a receptor was 9.2.

On to `O=C1NC(c2nc(Cn3nc(-c4ccc(Cl)cc4)n(C[C@H](O)C(F)(F)F)c3=O)nn2-c2ncccc2OC(F)(F)F)CO1` (single isomer, unassigned) [Example 119], for which the IC50 at human V2 receptor turned out to be 875 nM; at human V1a receptor it was 57 nM. The “ratio IC50 hV2/hV1a” value at human V1a receptor came out at 15.4.

For `NC(=O)OCc1nc(Cn2nc(-c3ccc(Cl)cc3)n(C[C@H](O)C(F)(F)F)c2=O)nn1-c1ccccc1Cl` [Example 28, [1-(2-Chlorophenyl)-3-({3-(4-chlorophenyl)-5-oxo-4-[(2S)-3,3,3-trifluoro-2-hydroxypropyl]-4,5-dihydro-1H-1,2,4-triazol-1-yl}methyl)-1H-1,2,4-triazol-5-yl]methyl Carbamate], at human V2 receptor, the IC50 came out at 2.57 nM. For the same compound, at human V1a receptor, the IC50 came out at 0.43 nM and the “ratio IC50 hV2/hV1a” value worked out at 6.0.

As for `C[C@H](OC(N)=O)c1nc(Cn2nc(-c3ccc(Cl)cc3)n(C[C@H](O)C(F)(F)F)c2=O)nn1-c1cccc(F)c1` [Example 30, (1S)-1-[3-({3-(4-Chlorophenyl)-5-oxo-4-[(2S)-3,3,3-trifluoro-2-hydroxypropyl]-4,5-dihydro-1H-1,2,4-triazol-1-yl}methyl)-1-(3-fluorophenyl)-1H-1,2,4-triazol-5-yl]ethyl Carbamate], the IC50 on human V2 receptor was 3.81 nM. Besides, at human V1a receptor, the IC50 came to 36.6 nM and the “ratio IC50 hV2/hV1a” value is recorded as 0.1.

With `CN1C(=O)CC[C@@H]1c1nc(Cn2nc(-c3ccc(Cl)cc3)n(C[C@H](O)C(F)(F)F)c2=O)nn1-c1ncccc1Cl` (single isomer, unassigned) [Example 105], on human V2 receptor, the IC50 came to 51 nM. Further, on human V1a receptor, the IC50 came out at 2.1 nM and the “ratio IC50 hV2/hV1a” value is reported as 24.3.

With `O=C(NC(CO)c1nc(Cn2nc(-c3ccc(Cl)cc3)n(C[C@H](O)C(F)(F)F)c2=O)nn1-c1ccccc1Cl)C(F)(F)F` (single isomer, unassigned) [Example 96], at human V2 receptor, the IC50 was 3.25 nM. At human V1a receptor, the IC50 amounted to 0.55 nM and the “ratio IC50 hV2/hV1a” value is 6.0.

Turning to `O=C1NC(c2nc(Cn3nc(-c4ccc(Cl)cc4)n(C[C@H](O)C(F)(F)F)c3=O)nn2-c2ncccc2OC(F)(F)F)CO1` (single isomer, unassigned) [Example 118], the IC50 on human V2 receptor stood at 385 nM. On human V1a receptor, the IC50 is 17 nM and the “ratio IC50 hV2/hV1a” value is listed as 22.7.

For `CNc1ccncc1-n1nc(Cn2nc(-c3ccc(Cl)cc3)n(C[C@H](O)C(F)(F)F)c2=O)nc1C(C)NC(C)=O` (single isomer, unassigned) [Example 127], the IC50 on human V2 receptor is 1550 nM. At human V1a receptor, the IC50 stood at 53 nM and the “ratio IC50 hV2/hV1a” value is on record as 29.3.

Consider `NC(=O)OCc1nc(Cn2nc(-c3ccc(Cl)cc3)n(C[C@H](O)C(F)(F)F)c2=O)nn1-c1cccc(Cl)c1` [Example 24, [1-(3-Chlorophenyl)-3-({3-(4-chlorophenyl)-5-oxo-4-[(2S)-3,3,3-trifluoro-2-hydroxypropyl]-4,5-dihydro-1H-1,2,4-triazol-1-yl}methyl)-1H-1,2,4-triazol-5-yl]methyl Carbamate], for which the IC50 at human V2 receptor was determined as 5.29 nM. Further, at human V1a receptor, the IC50 came to 25.9 nM and the “ratio IC50 hV2/hV1a” value was 0.2.

With `CC(N)c1nc(Cn2nc(-c3ccc(Cl)cc3)n(C[C@H](O)C(F)(F)F)c2=O)nn1-c1cccc(F)c1` (single isomer, unassigned) [Example 54], on human V2 receptor, the IC50 was determined as 4.2 nM. On human V1a receptor, the IC50 was 3.09 nM and the “ratio IC50 hV2/hV1a” value was found to be 1.4.

Turning to `Cc1ccccc1-n1nc(Cn2nc(-c3ccc(Cl)cc3)n(C[C@H](OC(N)=O)C(F)(F)F)c2=O)nc1COC(N)=O` [Example 38, (2S)-3-[1-({5-[(Carbamoyloxy)methyl]-1-(2-methylphenyl)-1H-1,2,4-triazol-3-yl}methyl)-3-(4-chlorophenyl)-5-oxo-1,5-dihydro-4H-1,2,4-triazol-4-yl]-1,1,1-trifluoropropan-2-yl Carbamate], at human V2 receptor, the IC50 came out at 3.56 nM. On human V1a receptor, the IC50 was found to be 0.65 nM and the “ratio IC50 hV2/hV1a” value is 5.5.

For the compound `COCCNC(=O)OCc1nc(Cn2nc(-c3ccc(Cl)cc3)n(C[C@H](O)C(F)(F)F)c2=O)nn1-c1ccccc1C(F)(F)F` [Example 51, {3-({3-(4-Chlorophenyl)-5-oxo-4-[(2S)-3,3,3-trifluoro-2-hydroxypropyl]-4,5-dihydro-1H-1,2,4-triazol-1-yl}methyl)-1-[2-(trifluoromethyl)phenyl]-1H-1,2,4-triazol-5-yl}methyl (2-methoxyethyl)-carbamate], the IC50 on human V2 receptor is 29.7 nM. Besides, on human V1a receptor, the IC50 is 3.9 nM and the “ratio IC50 hV2/hV1a” value was 7.6.

On to `CS(=O)(=O)NC(CO)c1nc(Cn2nc(-c3ccc(Cl)cc3)n(C[C@H](O)C(F)(F)F)c2=O)nn1-c1ccccc1Cl` (single isomer, unassigned) [Example 87], for which the IC50 on human V2 receptor amounted to 35.5 nM; on human V1a receptor, 2.25 nM. For the same compound, on human V1a receptor, the “ratio IC50 hV2/hV1a” value came to 15.8.

Turning to `C[C@H](OC(N)=O)c1nc(Cn2nc(-c3ccc(Cl)cc3)n(C[C@H](O)C(F)(F)F)c2=O)nn1-c1ccccc1S(N)(=O)=O` [Example 9, (1S)-1-[3-({3-(4-Chlorophenyl)-5-oxo-4-[(2S)-3,3,3-trifluoro-2-hydroxypropyl]-4,5-dihydro-1H-1,2,4-triazol-1-yl}methyl)-1-(2-sulfamoylphenyl)-1H-1,2,4-triazol-5-yl]ethyl Carbamate], the IC50 worked out at 135 nM at human V2 receptor and 31.5 nM on human V1a receptor. The “ratio IC50 hV2/hV1a” value on human V1a receptor amounted to 4.3.

As for `CC(NS(C)(=O)=O)c1nc(Cn2nc(-c3ccc(Cl)cc3)n(C[C@H](O)C(F)(F)F)c2=O)nn1-c1ccccc1Cl` (single isomer, unassigned) [Example 69], the IC50 on human V2 receptor was determined as 8.65 nM. In addition, on human V1a receptor, the IC50 stood at 0.7 nM and the “ratio IC50 hV2/hV1a” value was determined as 12.4.

With `Cc1ccccc1-n1nc(Cn2nc(-c3ccc(Cl)cc3)n(C[C@H](O)C(F)(F)F)c2=O)nc1COC(N)=O` [Example 37, [3-({3-(4-Chlorophenyl)-5-oxo-4-[(2S)-3,3,3-trifluoro-2-hydroxypropyl]-4,5-dihydro-1H-1,2,4-triazol-1-yl}methyl)-1-(2-methylphenyl)-1H-1,2,4-triazol-5-yl]methyl Carbamate], at human V2 receptor, the IC50 was found to be 6.62 nM. On human V1a receptor, the half-inhibitory concentration (IC50) was determined as 0.77 nM and the “ratio IC50 hV2/hV1a” value came to 8.6.

Turning to `CC(C)(C)OCC(NS(C)(=O)=O)c1nc(Cn2nc(-c3ccc(Cl)cc3)n(C[C@H](O)C(F)(F)F)c2=O)nn1-c1ccccc1Cl` (single isomer, unassigned) [Example 84], the IC50 at human V2 receptor was found to be 44.5 nM. Also, on human V1a receptor, the IC50 was determined as 4.75 nM and the “ratio IC50 hV2/hV1a” value stood at 9.4.
